According to ChEMBL document CHEMBL5390209, “Spinosyn A and Its Derivative Inhibit Colorectal Cancer Cell Growth via the EGFR Pathway” (J Nat Prod, 2023):
Activity calls are given as the source filed them.

How the values were obtained:
[1] = test system: HT-29; assay: Antitumor activity against human HT-29 cells xenografted Balb/c mouse assessed as inhibited tumor growth at 10 mg/kg/day, ip administrated for twice a week and measured after 6 days; assay type: functional, organism-based; details: time 6.0 day
[2] = Toxicity in human HT-29 cells xenografted Balb/c mouse assessed as change in body weight at 10 mg/kg/day, ip administrated for twice a week and measured after 6 days; assay type: organism-based; details: in vivo, 144 h, time 6 day
[3] = test system: HT-29; assay: Antitumor activity against human HT-29 cells xenografted Balb/c mouse assessed as reduction in tumor growth at 10 mg/kg/day, ip administrated for twice a week and measured after 28 days; assay type: functional, organism-based; details: time 28.0 day
[4] = test system: HT-29; assay: Antitumor activity against human HT-29 cells xenografted Balb/c mouse assessed as reduction in tumor cell density at 10 mg/kg/day, ip administrated for twice a week and measured after 28 days by Hematoxylin and Eosin staining based method; assay type: functional, organism-based; details: time 28.0 day
[5] = test system: HT-29; assay: Antitumor activity against human HT-29 cells xenografted Balb/c mouse assessed as reduction in Ki67 expression level at 10 mg/kg/day, ip administrated for twice a week and measured after 28 days by immunohistochemistry staining method; assay type: functional, organism-based; details: time 28.0 day
[6] = Toxicity in human HT-29 cells xenografted Balb/c mouse assessed as change in liver pathology at 10 mg/kg/day, ip administrated for twice a week and measured after 28 days; assay type: organism-based; details: in vivo, 672 h, time 28 day
[7] = Toxicity in human HT-29 cells xenografted Balb/c mouse assessed as change in heart pathology at 10 mg/kg/day, ip administrated for twice a week and measured after 28 days; assay type: organism-based; details: in vivo, 672 h, time 28 day
[8] = Toxicity in human HT-29 cells xenografted Balb/c mouse assessed as change in spleen pathology at 10 mg/kg/day, ip administrated for twice a week and measured after 28 days; assay type: organism-based; details: in vivo, 672 h, time 28 day
[9] = Toxicity in human HT-29 cells xenografted Balb/c mouse assessed as change in lung pathology at 10 mg/kg/day, ip administrated for twice a week and measured after 28 days; assay type: organism-based; details: in vivo, 672 h, time 28 day
[10] = Toxicity in human HT-29 cells xenografted Balb/c mouse assessed as change in kidney pathology at 10 mg/kg/day, ip administrated for twice a week and measured after 28 days; assay type: organism-based; details: in vivo, 672 h, time 28 day
[11] = test system: HT-29; assay: Inhibition of EGFR in human HT-29 cells xenografted in BALB/c nude mouse assessed as EGFR protein level in tumor at 10 mg/kg/day, ip administrated for twice a week and measured after 28 days by Western blotting analysis; assay type: functional, organism-based; details: time 28.0 day
[12] = test system: HT-29; assay: Inhibition of HER2 in human HT-29 cells xenografted in BALB/c nude mouse assessed as HER2 protein level in tumor at 10 mg/kg/day, ip administrated for twice a week and measured after 28 days by Western blotting analysis; assay type: functional, organism-based; details: time 28.0 day
[13] = test system: HT-29; assay: Inhibition of EGFR in human HT-29 cells xenografted in BALB/c nude mouse assessed as reduction in EGFR protein expression level in tumor at 10 mg/kg/day, ip administrated for twice a week and measured after 28 days by Western blotting analysis; assay type: functional, organism-based; details: time 28.0 day
[14] = test system: HT-29; assay: Inhibition of HER2 in human HT-29 cells xenografted in BALB/c nude mouse assessed as HER2 protein expression level in tumor at 10 mg/kg/day, ip administrated for twice a week and measured after 28 days by Western blotting analysis; assay type: functional, organism-based; details: time 28.0 day

O=c1[nH]cc(F)c(=O)[nH]1 [FLUOROURACIL]
inactive: inhibition [12] | inhibition [14]
active: inhibition [1] | Activity [3] | Activity [4] | Activity [5] | inhibition [11] | inhibition [13]
Non-Toxic: Activity [2] | Activity [6] | Activity [7] | Activity [8] | Activity [9] | Activity [10]
